# Test results as given in patent US20240245743A1, “USE OF CINNAMOMUM ZEYLANICUM ESSENTIAL OIL (EO) AS HUMAN MELANOMA CELLS DEATH INDUCER AND AS POSSIBLE ADJUVANT IN PHARMACOLOGICAL THERAPIES” (CONSIGLIO NAZIONALE DELLE RICERCHE, priority 2021, published 2024).
# How the values were obtained:
# M14 cells [1] = experiment: Colony formation assay; assay type: cell-based, human
# Protocol: Ten days after seeding, a solution of 2% methylene blue in 95% ethanol was added to the obtained monolayer and incubated for at least 30 minutes. The plates were then washed with ddH2O and the colonies (at least 50 cells) were counted. The results were expressed as a percentage of colonies formed with respect to the number of cells seeded. Cell survival rate was calculated as % compared to control cells.
# [2] = rats; cited from earlier work
# M14 cells [3] = experiment: Intracellular ROS analysis by FACS (H2DCF-DA); assay type: cell-based, human; conditions: EO 10 μg/ml for 24 hours; H2O2 5 mM
# Protocol: The generation of ROS species (reactive oxygen species) was analysed by FACS, using the probe sensitive to the oxidant 2 ‘, 7’-dichlorodihydrofluorescein (H2DCF-DA). The C. zeylanicum EO was administered at a dose of 10 μg/ml for 24 hours. […] H2O2 at a concentration of 5 mM was used as a control for the generation of ROS.
# melanoma = conditions: phase III study; cited from earlier work
# [4] = system: advanced melanoma, untreated brain metastases, and other solid tumours; conditions: phase I study; cited from earlier work
# [5] = features known in the art; cited from earlier work
compound,measurement,setting,value
"CC(=O)O[C@H]1C(=O)[C@@]2(C)[C@H]([C@H](OC(=O)c3ccccc3)[C@]3(O)C[C@H](OC(=O)[C@H](O)[C@@H](NC(=O)c4ccccc4)c4ccccc4)C(C)=C1C3(C)C)[C@]1(OC(C)=O)CO[C@@H]1C[C@@H]2O [Taxol, Paclitaxel]",induction of cell death in M14 cells,"M14 cells [1]; 24 hours treatment, EO 10 μg/ml",less than 10%
C=CCc1ccc2c(c1)OCO2 [Safrole],carcinogenicity,[2],weak carcinogenicity
"OO [H2O2, hydrogen peroxide]",oxidative stress (intracellular ROS) in M14 cells compared with PBMCs,M14 cells [3],greater oxidative stress
CC(C)(C)c1nc(-c2cccc(NS(=O)(=O)c3c(F)cccc3F)c2F)c(-c2ccnc(N)n2)s1 [dabrafenib],ORR (objective response rate),melanoma,53%
same,median PFS (progression free survival),melanoma,5.1 months
same,ORR,[4],47%
"CC/C(=C(\c1ccccc1)c1ccc(OCCN(C)C)cc1)c1ccccc1 [TAM, Tamoxifen]",survival of M14 cells compared to control,"M14 cells [1]; EO 10 μg/ml, TAM 0, 1 μM, 24 hours",no significant differences in survival compared to control
O=c1ccc2ccccc2o1 [Coumarin],"toxicity (liver, kidney) / general safety",[5],can cause liver and kidney damage
O=CC=Cc1ccccc1 [cinnamaldehyde],cell survival (colonies vs untreated control),"M14 cells [1]; M14 cells, 24 hours treatment",64.3%
